# Source: the kinase profiling compilation of Christmann-Franck et al. (2016)
# Experiments:
# Experiment in all cases: split-luciferase competition binding
# [1] = target: PRKCE (human) (UniProt Q02156); settings: compound 10.0 µM
# [2] = target: AKT1 (human) (UniProt P31749); settings: compound 10.0 µM
# [3] = target: PRKCI (human) (UniProt P41743); settings: compound 10.0 µM
# [4] = target: PRKX (human) (UniProt P51817); settings: compound 10.0 µM
# [5] = target: PDPK1 (human) (UniProt O15530); settings: compound 10.0 µM
# [6] = target: SGK3 (human) (UniProt Q96BR1); settings: compound 10.0 µM
# [7] = target: STK32B (human) (UniProt Q9NY57); settings: compound 10.0 µM
# STK32B (human), sequence (Q9NY57 whole entry, looked up): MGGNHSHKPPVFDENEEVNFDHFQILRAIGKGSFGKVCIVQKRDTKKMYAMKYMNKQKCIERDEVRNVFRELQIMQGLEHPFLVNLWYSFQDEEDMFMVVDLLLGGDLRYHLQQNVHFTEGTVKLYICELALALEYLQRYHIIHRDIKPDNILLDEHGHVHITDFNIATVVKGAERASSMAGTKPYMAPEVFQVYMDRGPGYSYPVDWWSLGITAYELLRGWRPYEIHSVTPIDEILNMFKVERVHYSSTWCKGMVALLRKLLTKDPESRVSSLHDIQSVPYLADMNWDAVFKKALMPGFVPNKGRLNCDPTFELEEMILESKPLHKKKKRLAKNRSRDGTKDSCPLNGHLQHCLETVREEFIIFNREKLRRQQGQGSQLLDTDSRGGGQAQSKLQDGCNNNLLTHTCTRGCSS
# [8] = target: AURKC (human) (UniProt Q9UQB9); settings: compound 10.0 µM
# [9] = target: AURKA (human) (UniProt O14965); settings: compound 10.0 µM
# [10] = target: RPS6KA2 KD1 (human) (UniProt Q15349); settings: compound 10.0 µM
# RPS6KA2 KD1 (human), sequence (Q15349 whole entry, looked up): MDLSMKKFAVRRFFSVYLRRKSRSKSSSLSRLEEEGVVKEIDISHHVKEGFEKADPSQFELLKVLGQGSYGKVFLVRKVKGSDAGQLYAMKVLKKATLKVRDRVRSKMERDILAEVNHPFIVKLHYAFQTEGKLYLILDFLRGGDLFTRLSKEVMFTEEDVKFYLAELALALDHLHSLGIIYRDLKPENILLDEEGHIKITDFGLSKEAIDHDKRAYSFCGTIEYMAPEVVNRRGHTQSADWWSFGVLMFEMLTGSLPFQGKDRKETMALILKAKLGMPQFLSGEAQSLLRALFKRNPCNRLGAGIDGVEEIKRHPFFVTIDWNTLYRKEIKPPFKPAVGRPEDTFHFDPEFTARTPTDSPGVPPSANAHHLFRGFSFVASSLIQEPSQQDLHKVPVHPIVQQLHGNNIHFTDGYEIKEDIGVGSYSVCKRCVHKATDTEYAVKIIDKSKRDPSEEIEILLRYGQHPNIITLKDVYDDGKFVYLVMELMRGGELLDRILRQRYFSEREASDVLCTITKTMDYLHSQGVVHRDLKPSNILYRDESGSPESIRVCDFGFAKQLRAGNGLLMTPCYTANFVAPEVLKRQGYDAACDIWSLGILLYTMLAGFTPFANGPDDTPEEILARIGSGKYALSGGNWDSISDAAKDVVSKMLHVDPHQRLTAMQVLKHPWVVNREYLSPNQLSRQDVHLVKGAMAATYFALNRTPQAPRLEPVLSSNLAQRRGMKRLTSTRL
# [11] = target: SGK2 (human) (UniProt Q9HBY8); settings: compound 10.0 µM
# [12] = target: RPS6KA6 KD1 (human) (UniProt Q9UK32); settings: compound 10.0 µM
# [13] = target: AURKB (human) (UniProt Q96GD4); settings: compound 10.0 µM
# [14] = target: PRKCH (human) (UniProt P24723); settings: compound 10.0 µM
# [15] = target: PRKCG (human) (UniProt P05129); settings: compound 10.0 µM
# [16] = tested on: PRKACA (mouse); settings: compound 10.0 µM; accession and sequence are those of the human protein
# [17] = target: PRKACB (human) (UniProt P22694); settings: compound 10.0 µM
# [18] = target: PRKCD (human) (UniProt Q05655); settings: compound 10.0 µM
# [19] = target: RPS6KA1 KD1 (human) (UniProt Q15418); settings: compound 10.0 µM
# [20] = target: AKT3 (human) (UniProt Q9Y243); settings: compound 10.0 µM
# [21] = target: DMPK (human) (UniProt Q09013); settings: compound 10.0 µM
# [22] = target: PRKCQ (human) (UniProt Q04759); settings: compound 10.0 µM
# [23] = target: RPS6KA5 KD1 (human) (UniProt O75582); settings: compound 10.0 µM
# RPS6KA5 KD1 (human), sequence (O75582 whole entry, looked up): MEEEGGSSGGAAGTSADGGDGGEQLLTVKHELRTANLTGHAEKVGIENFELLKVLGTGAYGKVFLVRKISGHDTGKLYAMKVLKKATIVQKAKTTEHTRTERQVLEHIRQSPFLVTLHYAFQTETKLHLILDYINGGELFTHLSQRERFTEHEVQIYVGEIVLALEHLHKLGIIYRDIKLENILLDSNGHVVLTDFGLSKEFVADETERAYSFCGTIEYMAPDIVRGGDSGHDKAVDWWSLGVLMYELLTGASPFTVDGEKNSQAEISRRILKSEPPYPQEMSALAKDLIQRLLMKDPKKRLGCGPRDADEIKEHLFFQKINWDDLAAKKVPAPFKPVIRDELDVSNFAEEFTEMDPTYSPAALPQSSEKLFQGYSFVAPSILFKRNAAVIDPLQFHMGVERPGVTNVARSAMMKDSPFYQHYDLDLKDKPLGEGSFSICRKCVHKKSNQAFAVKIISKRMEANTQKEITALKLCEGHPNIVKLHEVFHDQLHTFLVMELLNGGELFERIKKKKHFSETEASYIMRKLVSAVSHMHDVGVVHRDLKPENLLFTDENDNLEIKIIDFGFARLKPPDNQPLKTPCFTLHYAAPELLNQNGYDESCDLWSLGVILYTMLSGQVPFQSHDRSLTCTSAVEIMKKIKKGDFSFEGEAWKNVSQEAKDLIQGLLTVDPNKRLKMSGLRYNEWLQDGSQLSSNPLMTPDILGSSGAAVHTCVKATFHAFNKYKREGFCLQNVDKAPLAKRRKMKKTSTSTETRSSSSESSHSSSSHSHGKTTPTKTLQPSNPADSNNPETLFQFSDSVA
# [24] = target: AKT2 (human) (UniProt P31751); settings: compound 10.0 µM
# [25] = target: RPS6KA3 KD1 (human) (UniProt P51812); settings: compound 10.0 µM
# RPS6KA3 KD1 (human), sequence (P51812 whole entry, looked up): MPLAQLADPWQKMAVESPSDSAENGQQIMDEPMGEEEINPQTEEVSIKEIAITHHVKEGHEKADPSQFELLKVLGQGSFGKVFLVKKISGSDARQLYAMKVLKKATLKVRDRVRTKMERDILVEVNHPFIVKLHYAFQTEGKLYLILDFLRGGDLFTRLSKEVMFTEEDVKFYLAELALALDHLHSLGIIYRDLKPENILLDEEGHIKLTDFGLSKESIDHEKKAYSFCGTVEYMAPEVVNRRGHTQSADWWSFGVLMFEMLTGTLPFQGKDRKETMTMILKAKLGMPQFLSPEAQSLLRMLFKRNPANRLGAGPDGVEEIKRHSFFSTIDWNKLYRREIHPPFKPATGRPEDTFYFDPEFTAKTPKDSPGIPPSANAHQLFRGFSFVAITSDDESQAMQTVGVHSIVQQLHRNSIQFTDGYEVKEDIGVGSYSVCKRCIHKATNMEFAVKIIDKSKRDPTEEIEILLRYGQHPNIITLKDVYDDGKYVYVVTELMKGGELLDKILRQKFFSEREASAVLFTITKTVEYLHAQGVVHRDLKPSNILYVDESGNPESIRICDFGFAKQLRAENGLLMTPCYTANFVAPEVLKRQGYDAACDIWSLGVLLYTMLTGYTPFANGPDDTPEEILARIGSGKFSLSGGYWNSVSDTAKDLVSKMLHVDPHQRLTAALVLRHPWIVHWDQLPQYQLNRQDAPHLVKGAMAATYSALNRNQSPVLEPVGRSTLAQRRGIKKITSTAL
# [26] = target: PKN1 (human) (UniProt Q16512); settings: compound 10.0 µM
# PKN1 (human), sequence (Q16512 whole entry, looked up): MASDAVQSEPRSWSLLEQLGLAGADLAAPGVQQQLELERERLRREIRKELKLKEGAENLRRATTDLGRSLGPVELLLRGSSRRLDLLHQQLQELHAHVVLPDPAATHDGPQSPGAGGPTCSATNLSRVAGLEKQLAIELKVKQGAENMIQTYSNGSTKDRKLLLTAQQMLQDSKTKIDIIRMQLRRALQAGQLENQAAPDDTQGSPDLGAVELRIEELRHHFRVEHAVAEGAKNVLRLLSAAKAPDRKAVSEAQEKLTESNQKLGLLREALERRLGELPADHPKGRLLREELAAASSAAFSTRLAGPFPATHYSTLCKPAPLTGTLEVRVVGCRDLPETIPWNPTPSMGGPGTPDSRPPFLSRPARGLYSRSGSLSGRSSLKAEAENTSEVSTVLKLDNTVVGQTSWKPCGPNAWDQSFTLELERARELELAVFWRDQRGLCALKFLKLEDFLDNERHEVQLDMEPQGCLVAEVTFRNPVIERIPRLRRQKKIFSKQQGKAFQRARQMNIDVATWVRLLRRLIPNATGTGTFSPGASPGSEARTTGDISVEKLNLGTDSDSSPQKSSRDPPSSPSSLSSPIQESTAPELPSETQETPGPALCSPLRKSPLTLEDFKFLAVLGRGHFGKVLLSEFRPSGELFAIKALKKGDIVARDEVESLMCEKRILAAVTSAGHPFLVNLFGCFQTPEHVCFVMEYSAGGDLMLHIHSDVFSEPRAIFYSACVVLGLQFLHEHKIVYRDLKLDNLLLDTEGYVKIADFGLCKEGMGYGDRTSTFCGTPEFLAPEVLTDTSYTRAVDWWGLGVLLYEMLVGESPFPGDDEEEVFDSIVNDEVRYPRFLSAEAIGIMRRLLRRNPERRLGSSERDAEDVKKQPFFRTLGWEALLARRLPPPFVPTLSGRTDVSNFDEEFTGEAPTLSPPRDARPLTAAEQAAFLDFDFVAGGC
# [27] = target: RPS6KA4 KD1 (human) (UniProt O75676); settings: compound 10.0 µM
# PRKCI (human), sequence (P41743 whole entry, looked up): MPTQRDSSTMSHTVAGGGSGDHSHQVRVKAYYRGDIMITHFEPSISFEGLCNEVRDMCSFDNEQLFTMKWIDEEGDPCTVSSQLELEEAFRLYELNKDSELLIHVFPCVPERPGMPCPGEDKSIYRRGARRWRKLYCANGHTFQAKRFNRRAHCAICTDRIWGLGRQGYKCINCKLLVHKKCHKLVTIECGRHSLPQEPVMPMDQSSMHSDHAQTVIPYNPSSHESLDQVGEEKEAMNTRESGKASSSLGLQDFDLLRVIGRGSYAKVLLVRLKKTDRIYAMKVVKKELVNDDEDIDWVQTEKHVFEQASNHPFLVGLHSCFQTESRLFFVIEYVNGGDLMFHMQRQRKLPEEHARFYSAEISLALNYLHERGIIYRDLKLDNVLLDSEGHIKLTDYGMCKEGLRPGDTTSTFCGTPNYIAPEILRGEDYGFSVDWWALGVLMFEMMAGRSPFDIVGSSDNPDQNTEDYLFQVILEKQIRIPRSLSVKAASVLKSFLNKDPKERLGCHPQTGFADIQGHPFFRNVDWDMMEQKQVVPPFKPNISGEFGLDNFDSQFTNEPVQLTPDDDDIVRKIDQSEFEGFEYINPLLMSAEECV
# PRKCE (human), sequence (Q02156 whole entry, looked up): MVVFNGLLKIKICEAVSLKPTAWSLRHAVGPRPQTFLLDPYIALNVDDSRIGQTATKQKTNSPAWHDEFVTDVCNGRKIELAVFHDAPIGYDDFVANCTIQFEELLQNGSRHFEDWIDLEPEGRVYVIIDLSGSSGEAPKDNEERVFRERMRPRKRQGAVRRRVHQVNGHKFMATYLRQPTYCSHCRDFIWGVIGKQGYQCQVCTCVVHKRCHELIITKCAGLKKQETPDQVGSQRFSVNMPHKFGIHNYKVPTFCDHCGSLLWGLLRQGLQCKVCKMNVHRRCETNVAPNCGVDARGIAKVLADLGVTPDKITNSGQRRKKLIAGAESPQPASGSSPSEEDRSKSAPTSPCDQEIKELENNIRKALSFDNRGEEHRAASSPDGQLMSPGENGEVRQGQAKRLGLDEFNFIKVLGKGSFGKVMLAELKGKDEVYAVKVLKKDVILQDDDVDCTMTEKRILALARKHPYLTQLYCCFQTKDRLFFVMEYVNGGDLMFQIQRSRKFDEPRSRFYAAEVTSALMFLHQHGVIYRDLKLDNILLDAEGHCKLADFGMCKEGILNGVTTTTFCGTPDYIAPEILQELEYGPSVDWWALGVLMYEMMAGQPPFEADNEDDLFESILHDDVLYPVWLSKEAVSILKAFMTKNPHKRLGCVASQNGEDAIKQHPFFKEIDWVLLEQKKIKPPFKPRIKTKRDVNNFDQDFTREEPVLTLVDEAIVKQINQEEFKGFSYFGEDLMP
SMILES,inhibition [1] [%],inhibition [2] [%],inhibition [3] [%],inhibition [4] [%],inhibition [5] [%],inhibition [6] [%],inhibition [7] [%],inhibition [8] [%],inhibition [9] [%],inhibition [10] [%],inhibition [11] [%],inhibition [12] [%],inhibition [13] [%],inhibition [14] [%],inhibition [15] [%],inhibition [16] [%],inhibition [17] [%],inhibition [18] [%],inhibition [19] [%],inhibition [20] [%],other results
CC(C)[C@H](CO)Nc1nc(Nc2cccc(Cl)c2)c2ncn(C(C)C)c2n1,2,0,0,0,0,0,4,0,0,48,0,19,0,0,0,7,0,0,65,0,inhibition [21]: 11%; inhibition [22]: 0%; inhibition [23]: 2%; inhibition [24]: 0%; inhibition [25]: 41%; inhibition [26]: 0%; inhibition [27]: 12%
Cc1[nH]c(/C=C2\C(=O)Nc3ccc(S(=O)(=O)Cc4c(Cl)cccc4Cl)cc32)c(C)c1C(=O)N1CCC[C@@H]1CN1CCCC1,7,8,7,7,7,0,23,39,19,14,2,25,33,12,12,1,13,0,32,0,inhibition [21]: 9%; inhibition [22]: 0%; inhibition [23]: 22%; inhibition [24]: 0%; inhibition [25]: 13%; inhibition [26]: 0%; inhibition [27]: 12%
CS(=O)c1ccc(-c2nc(-c3ccc(F)cc3)c(-c3ccncc3)[nH]2)cc1 (configuration not stated),0,11,0,0,3,0,36,0,6,3,0,0,0,5,0,0,0,0,0,0,inhibition [21]: 0%; inhibition [22]: 0%; inhibition [23]: 0%; inhibition [24]: 0%; inhibition [25]: 2%; inhibition [26]: 0%; inhibition [27]: 0%
CC(C)N(CCC(=O)c1ccc2ccccc2c1)Cc1ccccc1,0,0,0,0,1,0,0,0,0,0,0,0,0,0,0,1,0,0,0,0,inhibition [21]: 0%; inhibition [22]: 0%; inhibition [23]: 2%; inhibition [24]: 0%; inhibition [25]: 0%; inhibition [26]: 0%; inhibition [27]: 0%
CC(=O)c1c(O)c(C)c(O)c(Cc2c(O)c3c(c(C(=O)/C=C/c4ccccc4)c2O)OC(C)(C)C=C3)c1O,14,24,0,16,0,0,23,8,5,9,20,13,10,0,26,16,22,6,0,0,inhibition [21]: 23%; inhibition [22]: 9%; inhibition [23]: 0%; inhibition [24]: 0%; inhibition [25]: 4%; inhibition [26]: 0%; inhibition [27]: 0%
COc1cc(CC2C(=O)OC[C@@H]2Cc2ccc(OC)c(OC)c2)ccc1O (some centres not stated),0,0,0,0,0,1,15,6,11,0,7,12,0,0,0,0,1,0,2,0,inhibition [21]: 0%; inhibition [22]: 0%; inhibition [23]: 0%; inhibition [24]: 0%; inhibition [25]: 6%; inhibition [26]: 0%; inhibition [27]: 0%
